Laboratory results taken from PubChem BioAssay (NCI).
Several values for one entry are separate records, joined by “and”; a condition that tells them apart may be missing. Identical values can stand only once.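 48-hour exposure; five concentrations; linearly interpolated endpoints. GI50 is the concentration that inhibits growth by half. TGI denotes the concentration required for complete inhibition of growth.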

Legend:
Test in all cases: growth of human tumour cells (NCI), 48 h
[1] = system: IGROV1 ovarian
[2] = system: NCI/ADR-RES ovarian
[3] = system: OVCAR-5 ovarian
[4] = system: OVCAR-3 ovarian
[5] = system: HOP-62 NSCLC
[6] = system: 786-0 renal
[7] = system: NCI-H522 lung
[8] = system: OVCAR-4 ovarian
[9] = system: U251 CNS
[10] = system: K-562 leukemia

`CN(C)[C@@H]1C(=O)C(C(=O)NCc2nc3[nH]cnc(=S)c3[nH]2)=C(O)[C@@]2(O)C(=O)C3=C(O)c4c(O)cccc4[C@@](C)(O)[C@H]3C[C@@H]12` was tested, and the GI50 [1] was 16 µM, the TGI [1] was > 100 µM and the GI50 [2] was 6.13 µM. For the same molecule, the TGI [2] was > 100 µM, the GI50 [3] was > 100 µM and the TGI [3] was > 100 µM. The GI50 [4] was 2.52 µM, the TGI [4] was > 100 µM and the GI50 [5] was 1.4 µM. The TGI [5] was > 100 µM, the GI50 [6] was 3.78 µM and the TGI [6] was > 100 µM. The GI50 [7] was > 100 µM, the TGI [7] was > 100 µM and the GI50 [8] was 1.13 µM. The TGI [8] was > 100 µM, the GI50 [9] was > 100 µM and the TGI [9] was > 100 µM. For the same molecule, the GI50 [10] was 1.41 µM and the TGI [10] was > 100 µM.

For `COc1ccc([C@@H]2[C@@H](Oc3ccccc3)C(=O)N2c2cc(OC)c(OC)c(OC)c2)cc1F`, the GI50 [1] was 0.257 µM, the TGI [1] was > 100 µM and the GI50 [2] was 0.0949 µM. The TGI [2] was > 100 µM, the GI50 [3] was 0.421 µM and the TGI [3] was > 100 µM. The GI50 [4] was 0.0511 µM, the TGI [4] was > 100 µM and the GI50 [5] was 0.0811 µM. The TGI [5] was > 100 µM, the GI50 [6] was 0.198 µM and the TGI [6] was > 100 µM. It also gave a GI50 [7] of 0.0276 µM, a TGI [7] of 0.332 µM and a GI50 [8] of 2.57 µM. The TGI [8] was > 100 µM, the GI50 [9] was 0.185 µM and the TGI [9] was > 100 µM. The GI50 [10] was 0.0417 µM and the TGI [10] was > 100 µM.

With `CNS(=O)(=O)Nc1nccc(Cc2c(C)c3ccc(Oc4ncccn4)cc3oc2=O)c1F` the GI50 [1] was 0.938 µM and 0.0955 µM, the TGI [1] was > 100 µM and the GI50 [2] was 20.2 µM and > 10 µM. For the same molecule, the TGI [2] was > 100 µM, the GI50 [3] was 0.0223 µM and 0.0145 µM and the TGI [3] was > 100 µM. For the same molecule, the GI50 [4] was 24.5 µM and > 10 µM, the TGI [4] was > 100 µM and the TGI [5] was > 100 µM. For the same molecule, the GI50 [6] was > 85.9 µM, the TGI [6] was > 100 µM and the GI50 [7] was 22.3 µM and > 10 µM. For the same molecule, the TGI [7] was > 100 µM, the GI50 [8] was 4.33 µM and > 5.62 µM and the TGI [8] was > 100 µM. For the same molecule, the GI50 [9] was 17.4 µM and > 10 µM, the TGI [9] was > 100 µM and the GI50 [10] was 2.21 µM and 1.62 µM. The TGI [10] was > 100 µM.

Work on `O=S(=O)(Nc1ccccc1)c1ccc(C2CC3(Cl)C(Cl)=C(Cl)C2(Cl)C3(Cl)Cl)cc1` (centres undefined) yielded a GI50 [1] of 2.24 µM, a TGI [1] of 5.13 µM and a GI50 [2] of 2.95 µM. For the same molecule, the TGI [2] was 7.98 µM, the GI50 [3] was 2.36 µM and the TGI [3] was 5.46 µM. The GI50 [4] was 2.18 µM, the TGI [4] was 4.13 µM and the GI50 [5] was 2.52 µM. It also gave a TGI [5] of 5.93 µM, a GI50 [6] of 2.15 µM and a TGI [6] of 4.23 µM. It also gave a GI50 [7] of 2.27 µM, a TGI [7] of 5.67 µM and a GI50 [8] of 3.37 µM. The TGI [8] was 11.1 µM, the GI50 [9] was 2.25 µM and the TGI [9] was 5.52 µM. For the same molecule, the GI50 [10] was 2.51 µM and the TGI [10] was 9.84 µM.

In the case of `O=C(O)CSc1cc(NS(=O)(=O)c2ccc(Br)cc2)c2ccccc2c1O`, the GI50 [1] is reported as 3.03 µM, the TGI [1] is reported as 8.76 µM and the GI50 [2] is reported as 3.11 µM. The TGI [2] was 13.8 µM, the GI50 [3] was 21.6 µM and the TGI [3] was 47.1 µM. It also gave a GI50 [4] of 2.58 µM, a TGI [4] of 9.09 µM and a GI50 [5] of 17.9 µM. It also gave a TGI [5] of 31.9 µM, a GI50 [6] of 19.9 µM and a TGI [6] of 38.3 µM. For the same molecule, the GI50 [7] was 16.2 µM, the TGI [7] was 33.7 µM and the GI50 [8] was 1.62 µM. It also gave a TGI [8] of 3.05 µM, a GI50 [9] of 15 µM and a TGI [9] of 30.9 µM. The GI50 [10] was 19.7 µM and the TGI [10] was > 59.6 µM.

`Cc1ccc(-c2nc([P+](c3ccccc3)(c3ccccc3)c3ccccc3)c(N3CCOCC3)o2)cc1` was tested, and the GI50 [1] was 0.419 µM, the TGI [1] was 4.11 µM and the GI50 [2] was 21.9 µM. The TGI [2] was > 100 µM, the GI50 [3] was 0.846 µM and the TGI [3] was 11.9 µM. It also gave a GI50 [4] of 0.362 µM, a TGI [4] of 3.69 µM and a GI50 [5] of 0.83 µM. The TGI [5] was 6.61 µM, the GI50 [6] was 2.54 µM and the TGI [6] was 12.7 µM. For the same molecule, the GI50 [7] was 0.371 µM, the TGI [7] was 7.39 µM and the GI50 [8] was 0.281 µM. For the same molecule, the TGI [8] was 3.03 µM, the GI50 [9] was 0.313 µM and the TGI [9] was 11.9 µM. It also gave a GI50 [10] of 0.331 µM and a TGI [10] of 4.87 µM.

Molecule `Cn1cc(-c2ccc3c(c2)ncn3-c2cc(NS(=O)(=O)C3CC3)cc(-c3ccc(F)cc3F)c2)cn1` has a GI50 [1] of 3.49 µM, a TGI [1] of 61.9 µM and a GI50 [2] of 13.6 µM. The TGI [2] was > 100 µM, the GI50 [3] was 14 µM and the TGI [3] was > 100 µM. For the same molecule, the GI50 [4] was 14.5 µM, the TGI [4] was 62.3 µM and the GI50 [5] was 14.1 µM. The TGI [5] was > 100 µM, the GI50 [6] was 6.05 µM and the TGI [6] was > 100 µM. The GI50 [7] was 10.6 µM, the TGI [7] was 64.9 µM and the GI50 [8] was 3.45 µM. For the same molecule, the TGI [8] was > 100 µM, the GI50 [9] was 3.77 µM and the TGI [9] was > 100 µM. It also gave a GI50 [10] of 4.31 µM and a TGI [10] of 72.1 µM.
